Values joined by “and” are separate entries in the source; they are usually repeats but may differ in a detail not shown here. Equal entries are not always repeated.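 Results reflect a 48-hour exposure of cells in 96-well plates to compound at five concentrations. The concentration for 50% growth inhibition is given as GI50. At the TGI there is no net growth.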
Test system: MDA-MB-468 breast
Test: DTP human tumour cell line panel, 48 h

| Structure (SMILES) | GI50 | TGI |
| --- | --- | --- |
| NC(=O)c1c(NC(=O)c2ccc(C3CCCCC3)cc2)sc2c1CCC(=O)C2 | 297 nM | 1430 nM |
| CCN(CC)CCCC(CNc1ccnc2cc(Cl)ccc12)c1ccc(Cl)cc1 (stereo unspecified) | 992 nM and 419 nM | 2550 nM and 1490 nM |
| CCN(CC)CCOc1ccc(-c2nc3cc(Cl)ccc3s2)cc1 | 1160 nM | 2460 nM |
| C=COCCCOc1ccccc1 | > 100000 nM | > 100000 nM |
| CCn1c(-c2nonc2N)nc2c(C#CC(C)(C)O)nc(OC[C@H](N)c3ccccc3)cc21 | 2950 nM | 6730 nM |
| O=C(CNc1ccc(Cl)cc1)Nc1ccc(-c2nc3ccccc3s2)cc1 | 37.5 nM | 386 nM |
| CCCCCCNC(=O)c1cc(NCc2cc(O)ccc2O)ccc1O | 6530 nM | 28900 nM |
| COc1ccc(CCOc2cc3c(cc2OC)CCN(C(=O)NCc2cocn2)C3c2ccc(C)cc2C)cc1 (stereo unspecified) | 289 nM | 1300 nM |
| Cn1nc(N)c2cc([C@@H]3Nc4ccc5[nH]ncc5c4[C@H]4C5CCC(C5)[C@@H]34)ccc21 (stereo partly specified) | 235 nM | 3340 nM |
| O=C(Nc1ccc(Cl)cc1F)c1ccccc1O | 2310 nM | 6420 nM |
| Clc1nc2ccccc2nc1CI | 2990 nM | 8670 nM |
| CCCCCCCCCCCCCC1=NC(C)(C)CN1C(C)C | 1520 nM | 2940 nM |
| CS(=O)c1nccc(-c2c(-c3ccc(F)c(OCc4ccc(F)cc4)c3)nc3sccn23)n1 (stereo unspecified) | 1950 nM | 4330 nM |
| [Cl][Hg][c]1cc(Br)cc(Br)c1 | 1370 nM | 3020 nM |
| CC(C)CCN1c2nc(Nc3cc(F)c(O)c(F)c3)ncc2N(C)C(=O)C1C (stereo unspecified) | 5020 nM | 23900 nM |
| COc1ccc(/C=C(/C(=O)N2CCN(c3ccccc3)CC2)c2cc(OC)c(OC)c(OC)c2)cc1O | 575 nM | > 100000 nM |
| CCN1CCN(C(c2ccc(C(F)(F)F)cc2)c2ccc3cccnc3c2O)CC1 (stereo unspecified) | 2480 nM | 6480 nM |

| Structure (SMILES) | GI50 | TGI |
| --- | --- | --- |
| N#CC(=C1C=CC(=NO)C=C1)c1ccccc1 | 289 nM | 2860 nM |
| COc1cc(C2CC(c3cccc(Br)c3)=NN2C(C)=O)cc(OC)c1OC (stereo unspecified) | 215 nM | > 100000 nM |
| Cn1c2ccccc2c2c3c(c4c5cc(Br)ccc5n(C)c4c21)C(=O)N(O)C3=O | 213 nM | 510 nM |
| O=C1NC(=O)C(c2cnc3ccccn23)=C1c1cn2c3c(cc(F)cc13)CN(C(=O)N1CCCCC1)CC2 | 4470 nM | 29900 nM |
| Cc1ccc(C)c(C2=C(c3cn(C)c4ccccc34)C(=O)NC2=O)c1 | 24300 nM | > 25000 nM |
| N#Cc1c(NN)n(C2OC(CO)C(O)C2O)c2ncnc(N)c12 (stereo unspecified) | 10.5 nM | 59.4 nM |
| COc1ccc(CN2C(=O)/C(=C\C(=O)c3ccc(OCCN4CCCCC4)cc3)c3ccccc32)cc1 | 1700 nM | 3680 nM |
| CCN(CC)CCC(CNc1ccnc2cc(Cl)ccc12)c1ccc(OC)cc1 (stereo unspecified) | 1990 nM | 4770 nM and 5300 nM |
| CN1CCN(CCOc2ccc(-c3cnc4c(-c5ccccc5F)cnn4c3)cc2)CC1 | 1650 nM | 3360 nM |
| COc1ccc(C(C)=O)cc1N1C(=O)C2C(C1=O)C1(c3ccccc3)C(=O)C2(c2ccccc2)C(c2ccc(C)cc2)=C1c1ccc(C)cc1 (stereo unspecified) | > 100000 nM | > 100000 nM |
| CC(C)=CCNc1ncnc2c1ncn2C1OC(CO)C(O)C1O (stereo unspecified) | 370 nM | 1780 nM |
| O=C(Cc1ccc(/C=C/C(=O)c2ncc[nH]2)cc1)Nc1cc(F)c(F)c(F)c1 | 1110 nM | 4530 nM |
| O=C(Nc1nc2ccc(C(F)(F)F)cc2s1)c1cc(Cl)ccc1O | 1400 nM | 13700 nM |
| CCC(C)n1ncn(-c2ccc(N3CCN(c4ccc(OCC5COC(Cn6cncn6)(c6ccc(Cl)cc6Cl)O5)cc4)CC3)cc2)c1=O (stereo unspecified) | 7070 nM | > 100000 nM |
| C=C1CC[C@@H]2[C@](C)(COC(C)=O)[C@H](OC(C)=O)CC[C@@]2(C)[C@@H]1CC(Sc1ccccc1)C1=CCOC1=O (stereo partly specified) | 1410 nM | 3260 nM |
| Cc1nc2c(-c3cnc(N)nc3)nc(N3CCOCC3)nc2n1C(C)C | 105 nM and 73.4 nM | 647 nM and 398 nM |

From PubChem BioAssay (NCI)
